Laboratory results reported in patent US11590116B2 (THERAVANCE BIOPHARMA R&D IP, LLC, priority 2019, dated 2023).

Assays:
[1] = target: T1, recombinant human ALK5 (TGF-βR1) protein (Homo sapiens, UniProt P36897); assay: Biochemical ALK5 (TGF-βR1) assay to measure pKi (LANCE Ultra ULight kinase assay); details: apparent pKi from pIC50 by Cheng-Prusoff, read-out: ALK5 pKi (converted)
T1 construct: purchased Life Technologies PR9075A
T1 sequence (P36897 34-503): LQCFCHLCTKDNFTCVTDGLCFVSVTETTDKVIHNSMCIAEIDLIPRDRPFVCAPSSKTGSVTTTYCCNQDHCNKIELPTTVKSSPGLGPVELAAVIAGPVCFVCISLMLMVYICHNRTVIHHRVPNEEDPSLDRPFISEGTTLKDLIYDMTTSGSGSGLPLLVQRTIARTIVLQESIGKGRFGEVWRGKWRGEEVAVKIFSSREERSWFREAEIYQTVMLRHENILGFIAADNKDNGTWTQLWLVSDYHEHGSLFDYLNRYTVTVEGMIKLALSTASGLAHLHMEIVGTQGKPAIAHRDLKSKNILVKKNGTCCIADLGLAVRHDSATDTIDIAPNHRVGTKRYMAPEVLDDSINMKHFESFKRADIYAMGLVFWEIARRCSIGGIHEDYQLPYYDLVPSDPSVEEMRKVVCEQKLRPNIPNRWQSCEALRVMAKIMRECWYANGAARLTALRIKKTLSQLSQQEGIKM
Outline: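 Compounds (10 μM to 25 pM) were preincubated 60 min at room temperature with enzyme, then reactions were started with ATP (125 μM stock, 5× final) and run 60 min at 37 °C. EDTA-containing Eu-anti-phospho-Topo IIα (Thr1342) antibody stopped the reaction; TR-FRET read at 665 nm. pIC50 from 4-parameter fit, converted to pKi via Cheng-Prusoff.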

[2] = test system: TGF-β-stimulated SMAD3 phosphorylation in BEAS-2B cells; assay: Cellular ALK5 potency assay, inhibition of TGF-β stimulated pSMAD3 formation in BEAS-2B cells; assay type: cell-based; details: Homo sapiens; inhibition of TGF-β stimulated pSMAD3 formation, BEAS-2B cells; read-out: BEAS2B pIC50 (converted)
Outline: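 BEAS-2B human lung epithelial cells, seeded overnight, were pre-treated with compound in HBSS/25 mM HEPES/1% BSA for 1 h at 37 °C, then stimulated with TGF-β (final 10 ng/mL) for 30 min. Lysates were assayed for pSMAD3 by AlphaLISA; pIC50 came from dose-dependent signal change versus TGF-β-stimulated untreated cells.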

Compound | Ki [1] [nM] | IC50 [2] [nM]
Cc1cccc(-c2[nH]cnc2-c2ccc3ncc(-c4cccc5c4CNC5)cc3c2)n1 [Compound 636, 3-isoindolin-4-yl-6-[5-(6-methyl-2-pyridyl)-1H-imidazol-4-yl]quinoline] | 0.0398 to 0.316 | 25.1 to 158
Cc1cccc(-c2n[nH]cc2-c2ccc3ncc(N4CCN(CCNC(C)C)CC4)cc3n2)n1 [Compound 637, N-[2-[4-[6-[3-(6-methyl-2-pyridyl)-1H-pyrazol-4-yl]-1,5-naphthyridin-3-yl]piperazin-1-yl]ethyl]propan-2-amine] | 0.0398 to 0.316 | 25.1 to 158
Cc1cccc(-c2n[nH]cc2-c2ccc3ncc(N4CCCN(C5CCNCC5)CC4)cc3n2)n1 [Compound 638, 2-[3-(6-methyl-2-pyridyl)-1H-pyrazol-4-yl]-7-[4-(4-piperidyl)-1,4-diazepan-1-yl]-1,5-naphthyridine] | 0.0398 to 0.316 | 1580 to 10000
Cc1cccc(-c2n[nH]cc2-c2ccc3ncc(N4CCN(CCO)CC4)cc3n2)n1 [Compound 639, 2-[4-[6-[3-(6-methyl-2-pyridyl)-1H-pyrazol-4-yl]-1,5-naphthyridin-3-yl]piperazin-1-yl]ethanol] | < 0.0316 | 25.1 to 158
Cc1cccc(-c2[nH]cnc2-c2ccc3ncc(N4CCN(C)C(CC(=O)OCC5CNC5)C4)cc3c2)n1 (stereo not drawn) [Compound 640, azetidin-3-ylmethyl 2-[1-methyl-4-[6-[5-(6-methyl-2-pyridyl)-1H-imidazol-4-yl]-3-quinolyl]piperazin-2-yl]acetate] | 0.0398 to 0.316 | 1580 to 10000
Cc1cccc(-c2n[nH]cc2-c2ccc3ncc(-c4ncc5n4CCN5)cc3n2)n1 [Compound 641, 7-(2,3-dihydro-1H-imidazo[1,5-a]imidazol-5-yl)-2-[3-(6-methyl-2-pyridyl)-1H-pyrazol-4-yl]-1,5-naphthyridine] | 0.0398 to 0.316 | 25.1 to 158
Cc1cccc(-c2n[nH]cc2-c2ccc3ncc(-c4nc5c([nH]4)CCNCC5)cc3n2)n1 [Compound 642, 2-[6-[3-(6-methyl-2-pyridyl)-1H-pyrazol-4-yl]-1,5-naphthyridin-3-yl]-1,4,5,6,7,8-hexahydroimidazo[4,5-d]azepine] | 0.0398 to 0.316 | 200 to 1260
CCNC(=O)C1CCN(CCNc2cnc3ccc(-c4nc[nH]c4-c4cccc(C)n4)cc3c2)CC1 [Compound 643, N-ethyl-1-[2-[[6-[5-(6-methyl-2-pyridyl)-1H-imidazol-4-yl]-3-quinolyl]amino]ethyl]piperidine-4-carboxamide] | 0.398 to 3.16 | 25.1 to 158
Cc1cccc(-c2[nH]cnc2-c2ccc3ncc(-c4cn[nH]c4)cc3n2)n1 [Compound 644, 2-(5-(6-methylpyridin-2-yl)-1H-imidazol-4-yl)-7-(1H-pyrazol-4-yl)-1,5-naphthyridine] | < 0.0316 | < 20
Cc1cccc(-c2[nH]cnc2-c2ccc3ncc(-c4cn5c(n4)CNCC5)cc3c2)n1 [Compound 645, 6-[5-(6-methyl-2-pyridyl)-1H-imidazol-4-yl]-3-(5,6,7,8-tetrahydroimidazo[1,2-a]pyrazin-2-yl)quinoline] | 0.0398 to 0.316 | 200 to 1260
Cc1cccc(-c2nc3ccccn3c2-c2ccc3ncc(N4CCCNCC4)cc3n2)n1 [Compound 646, 7-(1,4-diazepan-1-yl)-2-[2-(6-methyl-2-pyridyl)imidazo[1,2-a]pyridin-3-yl]-1,5-naphthyridine] | 0.0398 to 0.316 | 25.1 to 158
Cc1cccc(-c2[nH]cnc2-c2ccc3ncc(N4CC(N(C)C)C4)cc3c2)n1 [Compound 648, N,N-dimethyl-1-[6-[5-(6-methyl-2-pyridyl)-1H-imidazol-4-yl]-3-quinolyl]azetidin-3-amine] | 0.0398 to 0.316 | 25.1 to 158
Cc1cccc(-c2[nH]cnc2-c2ccc3ncc(NC(=O)C4CCNCC4)cc3c2)n1 [Compound 649, N-[6-[5-(6-methyl-2-pyridyl)-1H-imidazol-4-yl]-3-quinolyl]piperidine-4-carboxamide] | 0.0398 to 0.316 | 200 to 1260
Cc1cccc(-c2[nH]cnc2-c2ccc3ncc(-c4ccc(C(=O)OCC5CNC5)cc4)cc3c2)n1 [Compound 650, azetidin-3-ylmethyl 4-[6-[5-(6-methyl-2-pyridyl)-1H-imidazol-4-yl]-3-quinolyl]benzoate] | 0.0398 to 0.316 | 25.1 to 158
Cc1nc(-c2n[nH]cc2-c2ccc3ncc(-c4cc5n(n4)CCCN5)cc3n2)ccc1F [Compound 651, 2-[3-(5-fluoro-6-methyl-2-pyridyl)-1H-pyrazol-4-yl]-7-(4,5,6,7-tetrahydropyrazolo[1,5-a]pyrimidin-2-yl)-1,5-naphthyridine] | < 0.0316 | < 20
Cc1cccc(-c2[nH]cnc2-c2ccc3ncc(Nc4ccc(N5CCN(C)CC5)cn4)cc3n2)n1 [Compound 653, N-(5-(4-methylpiperazin-1-yl)pyridin-2-yl)-6-(5-(6-methylpyridin-2-yl)-1H imidazol-4-yl)-1,5-naphthyridin-3-amine] | 0.0398 to 0.316 | 25.1 to 158
Cc1cccc(-c2n[nH]cc2-c2ccc3ncc(N4CCN(C)CC4)cc3n2)n1 [Compound 654, 7-(4-methylpiperazin-1-yl)-2-[3-(6-methyl-2-pyridyl)-1H-pyrazol-4-yl]-1,5-naphthyridine] | 0.0398 to 0.316 | 25.1 to 158
Cc1cccc(-c2n[nH]cc2-c2ccc3ncc(-c4cnc5n4CCCN5)cc3n2)n1 [Compound 655, 2-[3-(6-methyl-2-pyridyl)-1H-pyrazol-4-yl]-7-(5,6,7,8-tetrahydroimidazo[1,2-a]pyrimidin-3-yl)-1,5-naphthyridine] | 0.0398 to 0.316 | 25.1 to 158
Cc1cccc(-c2nc[nH]c2-c2ccc3ncc(-c4cnn([C@H]5CCCC[C@@H]5N)c4)cc3c2)n1 [Compound 656, (1S,2S)-2-[4-[6-[4-(6-methyl-2-pyridyl)-1H-imidazol-5-yl]-3-quinolyl]pyrazol-1-yl]cyclohexanamine] | < 0.0316 | < 20
Cc1cccc(-c2nc3ccccn3c2-c2ccc3ncc(Br)cc3n2)n1 [Compound 657, 7-bromo-2-[2-(6-methyl-2-pyridyl)imidazo[1,2-a]pyridin-3-yl]-1,5-naphthyridine] | 0.0398 to 0.316 | 25.1 to 158
Cc1nc(-c2n[nH]cc2-c2ccc3ncc(-c4cn5c(n4)NCC5)cc3n2)ccc1F [Compound 658, 7-(2,3-dihydro-1H-imidazo[1,2-a]imidazol-6-yl)-2-[3-(5-fluoro-6-methyl-2-pyridyl)-1H-pyrazol-4-yl]-1,5-naphthyridine] | < 0.0316 | < 20
COC(=O)CC1CNCCN1CCNc1cnc2ccc(-c3nc[nH]c3-c3cccc(C)n3)cc2c1 (stereo not drawn) [Compound 659, methyl 2-[1-[2-[[6-[5-(6-methyl-2-pyridyl)-1H-imidazol-4-yl]-3-quinolyl]amino]ethyl]piperazin-2-yl]acetate] | 0.0398 to 0.316 | 200 to 1260
Cc1cccc(-c2nc3ccccn3c2-c2ccc3ncc(-c4cnn(CCN)c4)cc3n2)n1 [Compound 660, 2-[4-[6-[2-(6-methyl-2-pyridyl)imidazo[1,2-a]pyridin-3-yl]-1,5-naphthyridin-3-yl]pyrazol-1-yl]ethanamine] | 0.0398 to 0.316 | 25.1 to 158
Cc1nc(-c2n[nH]cc2-c2ccc3ncc(N4CCNCC4)cc3n2)ccc1F [Compound 661, 2-[3-(5-fluoro-6-methyl-2-pyridyl)-1H-pyrazol-4-yl]-7-piperazin-1-yl-1,5-naphthyridine] | 0.0398 to 0.316 | < 20
